# Results reported in the OPERA property sets (Mansouri et al. 2018).
row,Structure (SMILES),logP
1,Oc1ccc(C2(O)CCN(CCCSc3ccc(F)cc3)CC2)cc1,4.17
2,O=[N+]([O-])c1ccc(Cc2ccncc2)cc1,2.88
3,Cc1cccc(C)c1N(CCCN1CCCCC1)C(=O)Cc1ccccc1,5.28
4,CCS[C@@H]1O[C@H](CO)[C@H](O)[C@H](O)[C@H]1O,-1.51
5,CCOC(=O)Cn1nc2ccccc2n1,1.85
6,CCOc1ccc(Cc2cnc(N)nc2N)cc1OCC,1.72
7,CCC(CC)(C(=O)NC(N)=O)C(=O)OCc1ccccc1,2.74
8,Nc1nc(N)c2nc(-c3ccc(O)cc3)c(N)nc2n1,0.92
9,CCCc1ccc(N)cc1,2.4
10,CCOC(=O)C=COc1ccccc1Cl,3.55
11,O=C1c2ccccc2C(=O)C1c1ccc(Br)cc1,3.76
12,CCc1nc(N)nc(N)c1-c1ccc(Cl)c(Cl)c1,3.03
13,Cc1ccc(C(O)(Cn2ccnc2)c2ccc(Br)cc2)cc1 (stereo unspecified),3.55
14,CCCCCCCCCCCC(=O)CC(=O)Nc1c(OC)cc(OC)cc1OC,5.02
15,Cc1cn([C@H]2CC[C@@H](CO)O2)c(=O)[nH]c1=O,-0.6
16,Cc1ccc(Br)cc1N=C1NCCN1,1.94
17,c1ccc(-c2cc3ccccc3cn2)nc1,3.05
18,CCC(C(=O)OCc1ccc(C)cc1)C(COC(=O)c1ccccc1)Cc1cncn1C (stereo unspecified),4.85
19,CNC(=O)OCc1c2c(n3c1C(OC(C)=O)CC3)C(=O)C=C(N1CCCC1)C2=O (stereo unspecified),1.4

row,Structure (SMILES),logP
1,O=C(O)C=COc1ccccc1Cl,2.69
2,CCc1cc(CC)cc(C2C(=O)c3ccccc3C2=O)c1,4.94
3,COc1cccc2c1C(=O)c1c(O)c3c(c(O)c1C2=O)C[C@@](O)(C(C)=O)C[C@@H]3O[C@H]1C[C@H](N)[C@H](O)[C@H](C)O1,1.83
4,CC(=Cc1ccccc1)C(=O)O,2.6
5,CCN(CCO)Cc1cccc(COc2ccccc2)c1,3.04
6,Cc1ccccc1C(OCCN(C)C)c1ccccc1 (stereo unspecified),3.77
7,CCCCCCCCCCCCCC(=O)O,6.11
8,CCN(CC)CC(=O)NCc1ccccc1,2.14
9,Oc1cccc2c1CCCC2,2.95
10,COC(=O)c1ccc(CN(C)N=O)cc1,1.21
11,COCCNC(=O)COc1ccc(OCCNCC(O)COc2ccccc2)cc1 (stereo unspecified),1.7
12,CCc1ccc(NC(=O)CN2CCCCC2)cc1,3.52
13,CCC(CC)C(=O)O,1.68
14,Cc1cccc(C)c1NC(=O)CCCCN,1.02
15,CC1CCCC(c2ccccc2)(N2CCCCC2)C1 (stereo unspecified),5.86
16,CCCN(CCC)CC(=O)NC1c2ccccc2-c2ccccc21,4.61
17,CC1(C)NC(=Nc2ncc([N+](=O)[O-])s2)OC1(C)C,2.4
18,C=C(C)C(=O)OC1CC2=CC(CC3(C)OC3C3OC(=O)C(=C)C13)OC2=O (stereo unspecified),0.69
19,CCOCc1ccccc1,2.16

row,Structure (SMILES),logP
1,O=C(O)CCC(=O)c1ccccc1,1.3
2,CCCN(CCC)CC(=O)NCc1ccccc1,3.11
3,O=[N+]([O-])c1cc(F)ccc1F,1.86
4,Cc1c2ccccc2cc2ccccc12,5.07
5,CCCCC(CCCC)C(=O)O,3.2
6,CCCCCCCCCCCC(=O)C(C)(C)C(=O)N(C)c1c(OC)cc(OC)cc1OC,6.67
7,CCCCCC1Nc2cc(C(F)(F)F)c(S(N)(=O)=O)cc2S(=O)(=O)N1 (stereo unspecified),2.66
8,COc1cccc(/C=C/C(=O)O)c1,2.37
9,CC(C(=O)O)c1ccc(N2Cc3ccccc3C2=O)cc1 (stereo unspecified),2.77
10,CSC(C)=NOC(=O)N(C)SN(C(=O)N(C)C)C1CC1,2
11,CCCCNC(=O)c1cc(Br)cc(C)c1O,4.21
12,CC1CCC2C(C)C(OC(=O)Oc3ccccc3)OC3OC4(C)CCC1C32OO4 (stereo unspecified),4.41
13,Cc1ccc(S(=O)(=O)NC(=O)NN2CCCC2)cc1,0.65
14,CCCCCCCCOC(=O)c1cc(=O)[nH]c(=O)[nH]1,2.6
15,COc1cccc2c1C(=O)c1c(O)c3c(c(O)c1C2=O)CC(O)(C(=O)CO)CC3OC1CC(N2CCOCC2)C(O)C(C)O1 (stereo unspecified),1.73
16,OCc1cccc2ccccc12,2.37
17,CCCCNC(=O)NS(=O)(=O)c1ccc(N)cc1,1.01
18,CNC(=O)c1cc(Br)cc(C)c1O,3.51
